Measured values: PubChem BioAssay (NCI)
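Cultured in 96-well plates, cells were exposed to test compound for 48 hours across five concentrations. Definition used: TGI = concentration required for complete inhibition of growth.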

Key:
Assay in all cases: NCI-60 cell line screen, 48 h
[1] = tested on: 786-0 renal
[2] = tested on: A498 renal
[3] = tested on: A549 NSCLC
[4] = tested on: ACHN renal
[5] = tested on: BT-549 breast
[6] = tested on: CAKI-1 renal
[7] = tested on: CCRF-CEM leukemia
[8] = tested on: DU-145 prostate
[9] = tested on: EKVX NSCLC
[10] = tested on: HCC-2998 colon
[11] = tested on: HCT-116 colon
[12] = tested on: HCT-15 colon
[13] = tested on: HL-60(TB) leukemia
[14] = tested on: HOP-62 NSCLC
[15] = tested on: HOP-92 NSCLC
[16] = tested on: HS 578T breast
[17] = tested on: IGROV1 ovarian
[18] = tested on: K-562 leukemia
[19] = tested on: KM12 colon
[20] = tested on: LOX IMVI melanoma
[21] = tested on: M14 melanoma
[22] = tested on: MCF7 breast
[23] = tested on: MDA-MB-231 breast
[24] = tested on: MDA-N
[25] = tested on: MOLT-4 leukemia
[26] = tested on: NCI-H226 lung
[27] = tested on: NCI-H460 lung
[28] = tested on: NCI-H522 lung
[29] = tested on: NCI/ADR-RES ovarian
[30] = tested on: OVCAR-3 ovarian
[31] = tested on: OVCAR-4 ovarian
[32] = tested on: OVCAR-5 ovarian
[33] = tested on: OVCAR-8 ovarian
[34] = tested on: PC-3 prostate
[35] = tested on: RPMI-8226 leukemia
[36] = tested on: RXF 393 renal
[37] = tested on: SF-268 CNS
[38] = tested on: SF-295 CNS
[39] = tested on: SF-539 CNS
[40] = tested on: SK-MEL-28 melanoma
[41] = tested on: SK-MEL-5 melanoma
[42] = tested on: SNB-19 CNS
[43] = tested on: SNB-75 CNS
[44] = tested on: SR leukemia
[45] = tested on: SW-620 colon
[46] = tested on: T-47D breast
[47] = tested on: TK-10 renal
[48] = tested on: U251 CNS
[49] = tested on: UACC-62 melanoma
[50] = tested on: UO-31 renal
[51] = tested on: COLO 205 colon
[52] = tested on: HT29 colon
[53] = tested on: MALME-3M melanoma
[54] = tested on: MDA-MB-435
[55] = tested on: NCI-H23 lung
[56] = tested on: SK-MEL-2 melanoma
[57] = tested on: SK-OV-3 ovarian
[58] = tested on: SN12C renal
[59] = tested on: UACC-257 melanoma

CC(=O)O[C@H]1C(=O)[C@@]2(C)[C@H]([C@H](OC(=O)c3ccccc3)[C@]3(O)C[C@H](OC(=O)[C@H](O)[C@@H](NC(=O)c4ccc(N)cc4)c4ccccc4)C(C)=C1C3(C)C)[C@]1(OC(C)=O)CO[C@@H]1C[C@@H]2O
TGI [1]: > 50 µM | TGI [2]: > 50 µM | TGI [3]: > 50 µM | TGI [4]: > 50 µM | TGI [5]: > 50 µM | TGI [6]: > 50 µM | TGI [7]: > 23.7 µM | TGI [8]: 31.4 µM | TGI [9]: > 50 µM | TGI [10]: 0.0545 µM | TGI [11]: > 50 µM | TGI [12]: > 50 µM | TGI [13]: 0.318 µM | TGI [14]: > 50 µM | TGI [15]: > 50 µM | TGI [16]: 0.0126 µM | TGI [17]: > 50 µM | TGI [18]: 0.26 µM | TGI [19]: > 50 µM | TGI [20]: > 50 µM | TGI [21]: > 50 µM | TGI [22]: > 50 µM | TGI [23]: > 50 µM | TGI [24]: < 0.005 µM | TGI [25]: > 29.5 µM | TGI [26]: 0.00862 µM | TGI [27]: > 50 µM | TGI [28]: > 50 µM | TGI [29]: > 50 µM | TGI [30]: 0.0224 µM | TGI [31]: > 50 µM | TGI [32]: > 50 µM | TGI [33]: > 50 µM | TGI [34]: > 50 µM | TGI [35]: < 0.005 µM | TGI [36]: > 50 µM | TGI [37]: > 50 µM | TGI [38]: > 50 µM | TGI [39]: 0.0309 µM | TGI [40]: > 50 µM | TGI [41]: > 50 µM | TGI [42]: > 50 µM | TGI [43]: > 50 µM | TGI [44]: > 41.9 µM | TGI [45]: > 50 µM | TGI [46]: > 50 µM | TGI [47]: > 50 µM | TGI [48]: > 50 µM | TGI [49]: > 50 µM | TGI [50]: > 50 µM

CC(=O)OC1=NN=C2COC(c3ccccc3OC(C)=O)=NN2C1
TGI [1]: > 50 µM | TGI [3]: > 50 µM | TGI [4]: > 50 µM | TGI [5]: > 50 µM | TGI [6]: > 50 µM | TGI [7]: > 50 µM | TGI [51]: > 50 µM | TGI [8]: > 50 µM | TGI [9]: > 50 µM | TGI [10]: > 50 µM | TGI [11]: > 50 µM | TGI [12]: > 50 µM | TGI [13]: > 50 µM | TGI [14]: > 50 µM | TGI [15]: > 50 µM | TGI [16]: > 50 µM | TGI [52]: > 50 µM | TGI [17]: > 50 µM | TGI [18]: > 50 µM | TGI [19]: > 50 µM | TGI [20]: > 50 µM | TGI [21]: > 50 µM | TGI [53]: > 50 µM | TGI [22]: > 50 µM | TGI [23]: > 50 µM | TGI [54]: > 50 µM | TGI [24]: > 50 µM | TGI [55]: > 50 µM | TGI [27]: > 50 µM | TGI [28]: > 50 µM | TGI [29]: > 50 µM | TGI [30]: > 50 µM | TGI [31]: > 50 µM | TGI [32]: > 50 µM | TGI [34]: > 50 µM | TGI [35]: > 50 µM | TGI [36]: > 50 µM | TGI [37]: > 50 µM | TGI [38]: > 50 µM | TGI [39]: > 50 µM | TGI [56]: > 50 µM | TGI [40]: > 50 µM | TGI [41]: 18.1 µM | TGI [57]: > 50 µM | TGI [58]: > 50 µM | TGI [42]: > 50 µM | TGI [43]: > 50 µM | TGI [44]: > 50 µM | TGI [45]: > 50 µM | TGI [46]: > 50 µM | TGI [47]: > 50 µM | TGI [48]: > 50 µM | TGI [59]: > 50 µM | TGI [49]: > 50 µM | TGI [50]: > 50 µM

NC1C/C(=N\O)c2c(Cl)sc(Cl)c21 (stereo unspecified)
TGI [1]: 33.4 µM | TGI [2]: 59.8 µM | TGI [3]: > 100 µM | TGI [4]: 36.4 µM | TGI [5]: 32.9 µM | TGI [6]: 32.2 µM | TGI [7]: > 100 µM | TGI [51]: 61.4 µM | TGI [8]: 29 µM | TGI [9]: 34 µM | TGI [10]: > 100 µM | TGI [11]: 20.8 µM | TGI [12]: 33 µM | TGI [13]: > 100 µM | TGI [14]: 37 µM | TGI [15]: 42.9 µM | TGI [16]: > 100 µM | TGI [52]: 54.6 µM | TGI [17]: 32 µM | TGI [18]: > 100 µM | TGI [19]: 25.5 µM | TGI [20]: 15.9 µM | TGI [21]: 34.1 µM | TGI [53]: 34.5 µM | TGI [22]: 27.5 µM | TGI [54]: 29.5 µM | TGI [24]: 33.4 µM | TGI [25]: > 100 µM | TGI [26]: 41.4 µM | TGI [55]: 33.7 µM | TGI [27]: 43.3 µM | TGI [29]: 67.3 µM | TGI [30]: 31.8 µM | TGI [31]: 38.4 µM | TGI [32]: 40 µM | TGI [33]: 28.8 µM | TGI [34]: 48.8 µM | TGI [35]: 65.3 µM | TGI [37]: > 100 µM | TGI [38]: 91.1 µM | TGI [39]: 22.1 µM | TGI [56]: 36.1 µM | TGI [40]: 33.6 µM | TGI [57]: > 100 µM | TGI [58]: 35 µM | TGI [42]: 94.3 µM | TGI [43]: 76.9 µM | TGI [44]: > 100 µM | TGI [45]: 33.4 µM | TGI [46]: 39.7 µM | TGI [47]: 31.4 µM | TGI [59]: 31.2 µM | TGI [50]: 34.3 µM

COc1cc(C2C3=C(COC3=O)OC(C)(C)Oc3cc4c(cc32)OCO4)cc(OC)c1O (stereo unspecified)
TGI [1]: > 100 µM | TGI [2]: 68 µM | TGI [3]: > 76.8 µM | TGI [4]: > 100 µM | TGI [5]: > 100 µM | TGI [6]: > 46.4 µM | TGI [7]: > 100 µM | TGI [51]: 6.68 µM | TGI [8]: > 100 µM | TGI [9]: > 100 µM | TGI [10]: 7.88 µM | TGI [11]: > 20.8 µM | TGI [12]: > 100 µM | TGI [13]: 1.49 µM | TGI [14]: > 100 µM | TGI [15]: > 94.5 µM | TGI [16]: > 100 µM | TGI [52]: > 23.3 µM | TGI [17]: > 100 µM | TGI [18]: > 20.3 µM | TGI [19]: > 44.5 µM | TGI [20]: > 100 µM | TGI [21]: > 100 µM | TGI [53]: > 100 µM | TGI [22]: > 100 µM | TGI [23]: 11.5 µM | TGI [54]: 0.645 µM | TGI [24]: 0.423 µM | TGI [25]: > 100 µM | TGI [55]: > 22.1 µM | TGI [27]: > 100 µM | TGI [28]: 6.72 µM | TGI [30]: > 100 µM | TGI [31]: > 100 µM | TGI [32]: > 100 µM | TGI [33]: > 100 µM | TGI [34]: > 100 µM | TGI [35]: > 100 µM | TGI [36]: 0.552 µM | TGI [37]: > 100 µM | TGI [56]: > 100 µM | TGI [40]: > 100 µM | TGI [41]: 19.4 µM | TGI [57]: > 100 µM | TGI [58]: > 100 µM | TGI [42]: > 100 µM | TGI [44]: > 100 µM | TGI [45]: > 31.3 µM | TGI [46]: > 100 µM | TGI [47]: > 100 µM | TGI [48]: > 100 µM | TGI [59]: > 100 µM | TGI [50]: > 100 µM
